In PubChem BioAssay AID330 (DTP/NCI, 2004):
Several values for one entry are separate records, joined by “and”; a condition that tells them apart may be missing. Equal values may be shown once. Toxic doses and inconclusive results are not listed.

Test system: P388 leukemia ip, CD2F1 mice, survival T/C
Test: NCI In Vivo Anticancer Drug Screen. Data for tumor model P388 Leukemia (intraperitoneal) in CD2F1 (CDF1) mice
Conditions: endpoint: median survival time, higher = longer survival
Method in brief: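 Mice carrying the transplanted tumor received test compound or vehicle. Survival was recorded in each group, and the value is the treated-group measurement divided by that of the vehicle-treated control group.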

[1] = dose: 100.0 mg/kg/injection, schedule: Q04DX002 (ip), vehicle: Klucel (hydroxypropylcellulose) (HPC)
[2] = dose: 50.0 mg/kg/injection, schedule: Q01DX005 (ip), vehicle: Klucel (hydroxypropylcellulose) (HPC)
[3] = dose: 100.0 mg/kg/injection, schedule: Q01DX005 (ip), vehicle: Klucel (hydroxypropylcellulose) (HPC)
[4] = dose: 200.0 mg/kg/injection, schedule: Q01DX005 (ip), vehicle: Klucel (hydroxypropylcellulose) (HPC)
[5] = dose: 100.0 mg/kg/injection, schedule: Q01DX009 (ip), vehicle: saline with Tween-80
[6] = dose: 200.0 mg/kg/injection, schedule: Q01DX009 (ip), vehicle: saline with Tween-80
[7] = dose: 400.0 mg/kg/injection, schedule: Q01DX009 (ip), vehicle: saline with Tween-80
[8] = dose: 100.0 mg/kg/injection, schedule: Q01DX001 (ip), vehicle: saline with Tween-80
[9] = dose: 200.0 mg/kg/injection, schedule: Q01DX001 (ip), vehicle: saline with Tween-80
[10] = dose: 50.0 mg/kg/injection, schedule: Q01DX009 (ip), vehicle: saline
[11] = dose: 50.0 mg/kg/injection, schedule: Q01DX009 (ip), vehicle: Klucel (hydroxypropylcellulose) (HPC)
[12] = dose: 100.0 mg/kg/injection, schedule: Q01DX009 (ip), vehicle: Klucel (hydroxypropylcellulose) (HPC)
[13] = dose: 50.0 mg/kg/injection, schedule: Q01DX005 (ip), vehicle: saline with Tween-80
[14] = dose: 100.0 mg/kg/injection, schedule: Q01DX005 (ip), vehicle: saline with Tween-80
[15] = dose: 200.0 mg/kg/injection, schedule: Q01DX005 (ip), vehicle: saline with Tween-80
[16] = dose: 25.0 mg/kg/injection, schedule: Q01DX005 (ip), vehicle: Klucel (hydroxypropylcellulose) (HPC)

Cc1ccc(-c2ccc(Nc3c4ccccc4nc4ccccc34)cc2)cn1
T/C (dose: 25.0 mg/kg/injection, schedule: Q01DX005 (ip), vehicle: distilled water + Tween-80): 106 % of control | T/C (dose: 50.0 mg/kg/injection, schedule: Q01DX005 (ip), vehicle: distilled water + Tween-80): 117 % of control | T/C (dose: 100.0 mg/kg/injection, schedule: Q01DX005 (ip), vehicle: distilled water + Tween-80): 151 % of control | T/C (dose: 200.0 mg/kg/injection, schedule: Q01DX005 (ip), vehicle: distilled water + Tween-80): 193 % of control

NC(=S)SCCC(=O)N1CCCCC1
T/C (dose: 25.0 mg/kg/injection, schedule: Q04DX002 (ip), vehicle: Klucel (hydroxypropylcellulose) (HPC)): 101 % of control | T/C (dose: 50.0 mg/kg/injection, schedule: Q04DX002 (ip), vehicle: Klucel (hydroxypropylcellulose) (HPC)): 95 % of control | T/C [1]: 104 % of control and 95 % of control

C[CH2][Sn]1([CH2]C)[O]C(=O)CC(=O)[O]1
T/C (dose: 1.56 mg/kg/injection, schedule: Q04DX003 (ip), vehicle: saline): 105 % of control and 120 % of control | T/C (dose: 3.12 mg/kg/injection, schedule: Q04DX003 (ip), vehicle: saline): 115 % of control and 118 % of control | T/C (dose: 6.25 mg/kg/injection, schedule: Q04DX003 (ip), vehicle: saline): 114 % of control and 124 % of control | T/C (dose: 12.5 mg/kg/injection, schedule: Q04DX003 (ip), vehicle: saline): 109 % of control

CC1(C)OC2OC3C(CNCCO)OC(c4ccccc4)OC3C2O1 (configuration not stated)
T/C [2]: 107 % of control | T/C [3]: 108 % of control | T/C [4]: 101 % of control

CC(C)(C)c1cc(C(C)(C)O)c2c(c1)C(C)(C)OS2(C)Cl (configuration not stated)
T/C (dose: 50.0 mg/kg/injection, schedule: Q04DX003 (ip), vehicle: saline with Tween-80): 104 % of control

C=C1CC2(CCCC3(C2)OCCO3)OC1=O (configuration not stated)
T/C [2]: 95 % of control | T/C [3]: 95 % of control | T/C [4]: 106 % of control

CNS(=O)(=O)c1ccc2c(c1)[nH]c(=S)n2C
T/C [5]: 95 % of control | T/C [6]: 90 % of control | T/C [7]: 90 % of control

O=[N+]([O-])c1ccc(O)c(CN2CCC(O)(c3ccccc3)CC2)c1
T/C (dose: 100.0 mg/kg/injection, schedule: Q04DX003 (ip), vehicle: Klucel (hydroxypropylcellulose) (HPC)): 108 % of control | T/C (dose: 200.0 mg/kg/injection, schedule: Q04DX003 (ip), vehicle: Klucel (hydroxypropylcellulose) (HPC)): 99 % of control | T/C (dose: 400.0 mg/kg/injection, schedule: Q04DX003 (ip), vehicle: Klucel (hydroxypropylcellulose) (HPC)): 107 % of control

O=C(Cc1ccccc1)NC1C(=O)N2c3c(CO)cccc3OCC12 (configuration not stated)
T/C (dose: 50.0 mg/kg/injection, schedule: Q01DX001 (ip), vehicle: saline with Tween-80): 100 % of control | T/C [8]: 90 % of control | T/C [9]: 94 % of control

O=C1C(O)=C(c2ccccc2)C(=O)C(O)=C1c1ccccc1
T/C (dose: 12.5 mg/kg/injection, schedule: Q01DX009 (ip), vehicle: saline): 101 % of control and 124 % of control | T/C [10]: 157 % of control and 164 % of control

COc1ccc(NC(=S)Nc2ccc(OCCCN3CCOCC3)cc2)cc1
T/C [1]: 96 % of control | T/C (dose: 200.0 mg/kg/injection, schedule: Q04DX002 (ip), vehicle: Klucel (hydroxypropylcellulose) (HPC)): 94 % of control | T/C (dose: 400.0 mg/kg/injection, schedule: Q04DX002 (ip), vehicle: Klucel (hydroxypropylcellulose) (HPC)): 94 % of control

C[N+]1=C(/C=C/Nc2cc3c4ccccc4ccc3c3ccccc23)C(C)(C)c2ccccc21
T/C [11]: 117 % of control | T/C [12]: 119 % of control | T/C (dose: 200.0 mg/kg/injection, schedule: Q01DX009 (ip), vehicle: Klucel (hydroxypropylcellulose) (HPC)): 117 % of control

C[C@@H]1CC(=O)C[C@H]2CCCCN21
T/C (dose: 12.5 mg/kg/injection, schedule: Q01DX005 (ip), vehicle: saline): 102 % of control | T/C (dose: 25.0 mg/kg/injection, schedule: Q01DX005 (ip), vehicle: saline): 103 % of control | T/C (dose: 50.0 mg/kg/injection, schedule: Q01DX005 (ip), vehicle: saline): 105 % of control

NCC1OC(n2cnc3c(N)ncnc32)C(O)C1O (configuration not stated)
T/C (dose: 6.25 mg/kg/injection, schedule: Q01DX009 (ip), vehicle: water): 100 % of control | T/C (dose: 12.5 mg/kg/injection, schedule: Q01DX009 (ip), vehicle: water): 100 % of control | T/C (dose: 25.0 mg/kg/injection, schedule: Q01DX009 (ip), vehicle: water): 98 % of control | T/C (dose: 50.0 mg/kg/injection, schedule: Q01DX009 (ip), vehicle: water): 107 % of control | T/C (dose: 100.0 mg/kg/injection, schedule: Q01DX009 (ip), vehicle: water): 117 % of control

CNc1cc2nc3ccccc3nc2cc1O
T/C [10]: 104 % of control | T/C (dose: 100.0 mg/kg/injection, schedule: Q01DX009 (ip), vehicle: saline): 92 % of control | T/C (dose: 200.0 mg/kg/injection, schedule: Q01DX009 (ip), vehicle: saline): 86 % of control

CC(O)c1nc2ccccc2nc1C(=O)Nc1ccccc1N (configuration not stated)
T/C [13]: 101 % of control | T/C [14]: 88 % of control | T/C [15]: 92 % of control

Cc1ccc(Nc2ncnc3c2c(=O)n(C)c(=O)n3C)cc1
T/C (dose: 30.0 mg/kg/injection, schedule: Q01DX005 (ip), vehicle: saline with Tween-80): 88 % of control | T/C (dose: 60.0 mg/kg/injection, schedule: Q01DX005 (ip), vehicle: saline with Tween-80): 90 % of control | T/C (dose: 120.0 mg/kg/injection, schedule: Q01DX005 (ip), vehicle: saline with Tween-80): 90 % of control

COc1ccccc1P(=S)(c1ccccc1)c1ccccc1
T/C [2]: 99 % of control | T/C [3]: 99 % of control | T/C [4]: 96 % of control

Cc1cc(C)c2c(Nc3ccc4c(c3)OCO4)c(C(=O)O)cnc2c1
T/C (dose: 60.0 mg/kg/injection, schedule: Q04DX002 (ip), vehicle: Klucel + Tween-80): 95 % of control | T/C (dose: 120.0 mg/kg/injection, schedule: Q04DX002 (ip), vehicle: Klucel + Tween-80): 92 % of control | T/C (dose: 240.0 mg/kg/injection, schedule: Q04DX002 (ip), vehicle: Klucel + Tween-80): 101 % of control

O=C(NC(CO)C(=O)OCc1ccccc1)OCc1ccccc1 (configuration not stated)
T/C [5]: 90 % of control | T/C [6]: 90 % of control | T/C [7]: 95 % of control

CC(=O)OC(C(=O)N1CC1)C(OC(C)=O)C(OC(C)=O)C(OC(C)=O)C(=O)N1CC1 (configuration not stated)
T/C (dose: 25.0 mg/kg/injection, schedule: Q01DX009 (ip), vehicle: Klucel (hydroxypropylcellulose) (HPC)): 217 % of control | T/C [11]: 237 % of control and 255 % of control | T/C [12]: 88 % of control

SCc1ccccc1CS
T/C (dose: 50.0 mg/kg/injection, schedule: Q01DX009 (ip), vehicle: saline with Tween-80): 110 % of control and 112 % of control and 114 % of control | T/C [5]: 110 % of control and 114 % of control and 121 % of control | T/C [6]: 107 % of control

Clc1ccc2c(c1)C(c1ccccc1Cl)=NCC(SCCN1CCOCC1)=N2
T/C (dose: 60.0 mg/kg/injection, schedule: Q01DX005 (ip), vehicle: saline): 107 % of control | T/C (dose: 120.0 mg/kg/injection, schedule: Q01DX005 (ip), vehicle: saline): 101 % of control | T/C (dose: 240.0 mg/kg/injection, schedule: Q01DX005 (ip), vehicle: saline): 112 % of control

CCCCCCCCCCCCCCCCC[N+]1(CC)CCCCC1
T/C (dose: 0.39 mg/kg/injection, schedule: Q01DX009 (ip), vehicle: saline): 111 % of control | T/C (dose: 0.78 mg/kg/injection, schedule: Q01DX009 (ip), vehicle: saline): 116 % of control

Nc1nnn(N)n1
T/C (dose: 100.0 mg/kg/injection, schedule: Q04DX003 (ip), vehicle: saline): 92 % of control | T/C (dose: 200.0 mg/kg/injection, schedule: Q04DX003 (ip), vehicle: saline): 100 % of control

O=C(OCc1ccccc1)C(Cc1ccccc1)NC(=O)C(Cc1ccc(O)cc1)N(C(=O)OCc1ccccc1)C(=O)OCc1ccccc1 (configuration not stated)
T/C [13]: 103 % of control | T/C [14]: 100 % of control | T/C [15]: 91 % of control

CC(=O)C1C(=O)C(=O)N(c2ccc(F)cc2)C1=O (configuration not stated)
T/C [8]: 103 % of control | T/C [9]: 99 % of control | T/C (dose: 400.0 mg/kg/injection, schedule: Q01DX001 (ip), vehicle: saline with Tween-80): 98 % of control

CCCCCCCCCCN(CCCCCCCCCC)CC(=O)c1ccc2cc(Br)c3ccccc3c2c1
T/C [16]: 96 % of control | T/C [2]: 89 % of control | T/C [3]: 98 % of control

O=c1c(N(CCO)CCO)cn(Cc2ccccc2)c(=O)n1Cc1ccccc1
T/C [16]: 100 % of control | T/C [2]: 102 % of control | T/C [3]: 103 % of control | T/C [4]: 97 % of control
